C[C@@H]1CN(Cc2ccc(F)cc2)CCN1C(=O)/C=C/c1ccc(Cl)cc1NC(=O)N1CCNC1=O [Example 11, 2-Oxo-imidazolidine-1-carboxylic acid (5-Chloro-2-[(E)-3-[(R)-4-(4-fluoro-benzyl)-2-methyl-piperazin-1-yl]-3-oxo-propenyl]-phenyl)-amide]
melting point: 275 to 277 °C
